Measured values reported in US5580542A, “Method of testing for nephritis” (Kureha Kagaku Kogyo K.K., priority 1993, dated 1996).
Where “and” joins values, the source holds several entries; their conditions need not be identical. Equal values may be shown once.

What was measured:
[1] = Test 4: concentrations of PAH and AcPAH in blood after Na-PAH; format: in vivo, Sprague-Dawley male rats; conditions: 40 mg Na-PAH single shot jugular vein; serum at 30, 60, 90, 120 minutes
Description: In the test, the rate of secretion of an acetyltransferase activity measuring agent according to this invention into urine was tested.
An aqueous solution of 40 mg of sodium p-aminohippurate (Na-PAH) in 200 μl of distilled water was administered as a single shot to the jugular vein of each rat under anesthesia with ethyl ether. Upon elapsed time of 30 minutes, 60 minutes, 90 minutes and 120 minutes, the concentrations of PAH and AcPAH in blood were measured by high-performance liquid chromatography. Serum was used in an amount of 50 μl each time. The pretreatment method and analysis conditions were the same as in Test 2.

[2] = Test 2: urinal AcPAH/PAH ratio after Na-PAH in renal arterial ligature rats; format: in vivo, Sprague-Dawley male rats; conditions: 40 mg Na-PAH single shot jugular vein, 24 h urine; for urinal AcPAH/PAH ratio, individual rats: day 37 after operation
Description: In this test, an investigation was conducted about the relationship, if any, between the degree of ligature of the renal artery, which serves as an index for the degree of progress of the pathema of a kidney disease, and the concentration ratio of p-acetyl-aminohippuric acid (AcPAH) to p-aminohippuric acid (PAH) in urine.
Depending on whether the renal arterial carina ligating method was applied and if so, how tight the ligating method as applied, the rats were divided into three groups, each consisting of three of the rats, that is, a sham-operation group (i.e., control), a 1/2 renal arterial ligature group (only one kidney was functioning) and a 5/6 renal arterial ligature group. On the 37th day after the operation, an aqueous solution of 40 mg of sodium p-aminohippurate (Na-PAH) in 200 μl of distilled water was administered as a single shot to the jugular vein of each rat under anesthesia with ethyl ether. The rat was then immediately placed in metabolism test cage, and urine was collected over 24 hours. The concentrations of AcPAH and PAH in urine were analyzed by high-performanceliquid chromatography in a manner to be described subsequently herein, whereby the ratio of AcPAH to PAH (AcPAH/PAH) was determined.
Namely, 150 μl of methanol, which contained 1 μg of vanillic acid as an internal standard substance, were added to 50 μl of fivefold dilute urine. After the resulting mixture was stirred and centrifuged, the supernatant was collected and was subjected to filtration by centrifugation. By high-performance liquid chromatography, 10 μl of the supernant so obtained were quantitatively analyzed under the following analysis conditions:
Column: "Unisil Pack 250B" (trade name, product of GL Science Inc.)
Mobile phase: water/acetic acid/acetonitrile=93.5/0.5/6 (pH 3, approximately)
Column oven temperature: 40° C.

[3] = Test 3: time-dependent stability of urinal AcPAH/PAH ratio after Na-PAH; format: in vivo, Sprague-Dawley male rats; conditions: 40 mg Na-PAH single shot jugular vein, 24 h urine, test repeated 7 times on different days
Description: In this test, an investigation was conducted about the time-dependent stability of test results which were obtained using an acetyltransferase activity measuring agent according to the present invention.
An aqueous solution of 40 mg of sodium p-aminohippurate (Na-PAH) in 200 μl of distilled water was administered as a single shot to the jugular vein of each rat under anesthesia with ethyl ether. The rat was then immediately placed in metabolism test cage, and urine was collected over 24 hours. The concentrations of AcPAH and PAH in urine were analyzed as in Test 2, whereby the AcPAH/PAH ratio was determined. The above test was repeated 7 times on different days so that its average value, standard deviation (S.D.) and coefficient of variations (C.V.) were determined.

[4] = system: A7r5; assay: Test 1: acetyltransferase activity, conversion of p-aminobenzoic acid to p-acetamidobenzoic acid in culture (GC-MS); format: cell-based, rat; conditions: A7r5 (fetal thoracic aortic smooth muscle); culture medium after 2 to 3 days
Description: (§1) In this test, the activity of acetyltransferase was evaluated by an in-vitro experiment with respect to p-aminobenzoic acid.
(§2) The left and right kidneys of 7 weeks-old Sprague-Dawley female rats were excised. After the renal cortices were shredded, mesangial cells were prepared by the Sieving's method. For the sake of comparison, "A7r5" (trade name, derived from fetal thoracic aortic smooth muscle), "Clone 9" (trade name. derived from liver), "H9 c2 (2-1)" (trade name, derived from cardiorhabdium), "IEC-18" (trade name, derived from the small intestine) and "NRK-52E" (trade name, derived from epithelial cells of renal tubule), all products of Flow Corp., U.S.A., were used as cells derived from rats.
(§3) Using as a culture medium "RPMI-1640" (trade name; product of Flow Corp.; U.S.A.) added with fetal bovine serum (product of GIBCO Corp.) whose concentration was finally 10% in the medium, those cells were cultured in a 5% CO2 incubator. Since the p-amionbenzoic acid contained in RPMI-1640 was converted to p-acetamidobenzoic acid by the above culture, detection was conducted with respect to the p-acetamidobenzoic acid so converted.
(§4) Namely, 2 ml of each culture medium after the lapse of 2 to 3 days since its culture were subjected to centrifugal ultrafiltration to eliminate proteins. One ml of the filtrate was added with 30 μl of 1N hydrochloric acid to adjust the pH to pH 1. Added next were 10 μg of p-pentylbenzoic acid, as an internal standard, and 0.5 g NaCl. The resulting mixture was shaken three times together with 3 ml portions of ethyl acetate to conduct liquid/liquid extraction of the organic acid component. After the extract was dried under a nitrogen gas stream, 40 μl of N,O-bis(trimethylsilyl)trifluoroacetamide and 10 μl of trimethylchlorosilane were added. The resulting mixture was stirred at 60° C. for 1 hour so that the organic acid component was trimethylsilylated. The trimethylsilylated organic acid component was then detected by gas chromatography mass spectrometry. The activity of acetyltransferase was evaluated by the relative height of a peak corresponding to p-acetamidobenzoic acid. The following evaluation standard was employed:-: smaller than 50,000,+: 50,000 or greater but smaller than 500,000, ++: 500,000 or greater, all in terms of abundance.

[5] = system: Clone 9; assay: as above; format: cell-based, rat; conditions: Clone 9 (liver); culture medium after 2 to 3 days
Description: as §1, §2, §3, §4

[6] = system: H9c2(2-1); assay: as above; format: cell-based, rat; conditions: H9c2(2-1) (cardiorhabdium); culture medium after 2 to 3 days
Description: as §1, §2, §3, §4

[7] = system: IEC-18; assay: as above; format: cell-based, rat; conditions: IEC-18 (small intestine); culture medium after 2 to 3 days
Description: as §1, §2, §3, §4

[8] = system: Mesangial cells; assay: as above; format: cell-based, rat
Description: as §1, §2, §3, §4

[9] = system: NRK-52E; assay: as above; format: cell-based, rat; conditions: NRK-52E (epithelial cells of renal tubule); culture medium after 2 to 3 days
Description: as §1, §2, §3, §4

[10] = 1/2 Renal arterial ligature group (n = 3)
[11] = 5/6 Renal arterial ligature group (n = 3)

CC(=O)Nc1ccc(C(=O)NCC(=O)O)cc1 [AcPAH, p-acetyl-aminohippuric acid]
concentration of metabolite AcPAH in blood versus time (FIG. 2) [1]: becomes low in concentration in 120 minutes after the administration

Nc1ccc(C(=O)NCC(=O)[O-])cc1.[Na+]
urinal AcPAH/PAH ratio, Ave. [2, 10]: 0.146
urinal AcPAH/PAH ratio, individual rats [2, 10]: 0.144 and 0.153 and 0.141
urinal AcPAH/PAH ratio, Ave. [2, 11]: 0.250
urinal AcPAH/PAH ratio, individual rats [2, 11]: 0.236 and 0.242 and 0.272
urinal AcPAH/PAH ratio, Ave. ([2]; Sham-operation group (n = 3)): 0.125
urinal AcPAH/PAH ratio, individual rats ([2]; Sham-operation group (n = 3)): 0.132 and 0.121 and 0.123
Urinal AcPAH/PAH, Ave. ([3]; Rat #1): 0.125
Urinal AcPAH/PAH, Ave. ([3]; Rat #2): 0.100
Urinal AcPAH/PAH, Ave. ([3]; Rat #3): 0.131

Nc1ccc(C(=O)NCC(=O)O)cc1 [PAH, p-aminohippuric acid]
elimination of PAH from blood (concentration in blood versus time, FIG. 1) [1]: substantially eliminated from blood in 120 minutes after the administration

Nc1ccc(C(=O)O)cc1 [p-aminobenzoic acid]
Evaluation results: activity of acetyltransferase by relative height of peak corresponding to p-acetamidobenzoic acid [4]: - (smaller than 50,000)
Evaluation results: activity of acetyltransferase by relative height of peak corresponding to p-acetamidobenzoic acid [5]: - (smaller than 50,000)
Evaluation results: activity of acetyltransferase by relative height of peak corresponding to p-acetamidobenzoic acid [6]: - (smaller than 50,000)
Evaluation results: activity of acetyltransferase by relative height of peak corresponding to p-acetamidobenzoic acid [7]: - (smaller than 50,000)
N-acetyltransferase activity to p-aminobenzoic acid (in words) ([8]; Mesangial cells): confirmed to have N-acetyltransferase activity
Evaluation results: activity of acetyltransferase by relative height of peak corresponding to p-acetamidobenzoic acid ([8]; Mesangial cells from rat renal cortex, culture medium after 2 to 3 days): ++ (500,000 or greater)
Evaluation results: activity of acetyltransferase by relative height of peak corresponding to p-acetamidobenzoic acid [9]: - (smaller than 50,000)
